From US10517920B2, “Antibacterial peptide and method of treatment using the antibacterial peptide” (United Arab Emirates University, priority 2011, dated 2019)
Where no end group is shown, it is not given here.

System: Gram-positive and Gram-negative bacteria
Test: In vitro disc diffusion of identified amino acid sequences
Assay type: cell-based
Method: Each amino acid sequence identified in each of samples 1, sample 2 and sample 3, were checked for antibacterial activity using the invitro disc diffusion method of Murray P R et al; 1995 (Murray P R, Baron E J, Pfaller M A, Tenover F C, Yolke R H. (1995). Manual of Clinical Microbiology, ASM, Washington, D.C. 6th edition.)
The amino acid sequences were also compared to an Ampicillin standard of 10 μg/mL

Row | Sequence | Antibacterial activity of amino acid sequences | Antibacterial activity compared with the standard drug ampicillin
1 | KRGRLIWRVWRGIW [SEQ ID NO: 4, antibacterial peptide from the <10 kDa fraction of date pits degraded by solid state degradation] | maximum anti-bacterial activity | comparable to the standard drug ampicillin
2 | RQWISRWTWQR [SEQ ID NO:6, antibacterial peptide from the <10 kDa fraction of date pits degraded by solid state degradation] | maximum anti-bacterial activity | comparable to the standard drug ampicillin
